Positions of bridges follow the written chain, without caps; N, C: chain ends. Non-standard residues stand in square brackets, D forms with d. Residues, ends and D or L forms follow the SMILES beside them. Pra = C#CC[C@H](N)C(=O)O
Key:
Assay in all cases: cell-based
hNav1.7 = hNav1.7 (Homo sapiens, UniProt Q15858); format: cell-based; conditions: IonWorks Quattro, use-dependent block, hNav1.7; read-out: IWQ Use Nav1.7
hNav1.5 = hNav1.5 (Homo sapiens, UniProt Q14524); conditions: IonWorks Quattro, use-dependent block, hNav1.5; read-out: IWQ Use Nav1.5
Chain of hNav1.5 (Q14524 whole entry, looked up): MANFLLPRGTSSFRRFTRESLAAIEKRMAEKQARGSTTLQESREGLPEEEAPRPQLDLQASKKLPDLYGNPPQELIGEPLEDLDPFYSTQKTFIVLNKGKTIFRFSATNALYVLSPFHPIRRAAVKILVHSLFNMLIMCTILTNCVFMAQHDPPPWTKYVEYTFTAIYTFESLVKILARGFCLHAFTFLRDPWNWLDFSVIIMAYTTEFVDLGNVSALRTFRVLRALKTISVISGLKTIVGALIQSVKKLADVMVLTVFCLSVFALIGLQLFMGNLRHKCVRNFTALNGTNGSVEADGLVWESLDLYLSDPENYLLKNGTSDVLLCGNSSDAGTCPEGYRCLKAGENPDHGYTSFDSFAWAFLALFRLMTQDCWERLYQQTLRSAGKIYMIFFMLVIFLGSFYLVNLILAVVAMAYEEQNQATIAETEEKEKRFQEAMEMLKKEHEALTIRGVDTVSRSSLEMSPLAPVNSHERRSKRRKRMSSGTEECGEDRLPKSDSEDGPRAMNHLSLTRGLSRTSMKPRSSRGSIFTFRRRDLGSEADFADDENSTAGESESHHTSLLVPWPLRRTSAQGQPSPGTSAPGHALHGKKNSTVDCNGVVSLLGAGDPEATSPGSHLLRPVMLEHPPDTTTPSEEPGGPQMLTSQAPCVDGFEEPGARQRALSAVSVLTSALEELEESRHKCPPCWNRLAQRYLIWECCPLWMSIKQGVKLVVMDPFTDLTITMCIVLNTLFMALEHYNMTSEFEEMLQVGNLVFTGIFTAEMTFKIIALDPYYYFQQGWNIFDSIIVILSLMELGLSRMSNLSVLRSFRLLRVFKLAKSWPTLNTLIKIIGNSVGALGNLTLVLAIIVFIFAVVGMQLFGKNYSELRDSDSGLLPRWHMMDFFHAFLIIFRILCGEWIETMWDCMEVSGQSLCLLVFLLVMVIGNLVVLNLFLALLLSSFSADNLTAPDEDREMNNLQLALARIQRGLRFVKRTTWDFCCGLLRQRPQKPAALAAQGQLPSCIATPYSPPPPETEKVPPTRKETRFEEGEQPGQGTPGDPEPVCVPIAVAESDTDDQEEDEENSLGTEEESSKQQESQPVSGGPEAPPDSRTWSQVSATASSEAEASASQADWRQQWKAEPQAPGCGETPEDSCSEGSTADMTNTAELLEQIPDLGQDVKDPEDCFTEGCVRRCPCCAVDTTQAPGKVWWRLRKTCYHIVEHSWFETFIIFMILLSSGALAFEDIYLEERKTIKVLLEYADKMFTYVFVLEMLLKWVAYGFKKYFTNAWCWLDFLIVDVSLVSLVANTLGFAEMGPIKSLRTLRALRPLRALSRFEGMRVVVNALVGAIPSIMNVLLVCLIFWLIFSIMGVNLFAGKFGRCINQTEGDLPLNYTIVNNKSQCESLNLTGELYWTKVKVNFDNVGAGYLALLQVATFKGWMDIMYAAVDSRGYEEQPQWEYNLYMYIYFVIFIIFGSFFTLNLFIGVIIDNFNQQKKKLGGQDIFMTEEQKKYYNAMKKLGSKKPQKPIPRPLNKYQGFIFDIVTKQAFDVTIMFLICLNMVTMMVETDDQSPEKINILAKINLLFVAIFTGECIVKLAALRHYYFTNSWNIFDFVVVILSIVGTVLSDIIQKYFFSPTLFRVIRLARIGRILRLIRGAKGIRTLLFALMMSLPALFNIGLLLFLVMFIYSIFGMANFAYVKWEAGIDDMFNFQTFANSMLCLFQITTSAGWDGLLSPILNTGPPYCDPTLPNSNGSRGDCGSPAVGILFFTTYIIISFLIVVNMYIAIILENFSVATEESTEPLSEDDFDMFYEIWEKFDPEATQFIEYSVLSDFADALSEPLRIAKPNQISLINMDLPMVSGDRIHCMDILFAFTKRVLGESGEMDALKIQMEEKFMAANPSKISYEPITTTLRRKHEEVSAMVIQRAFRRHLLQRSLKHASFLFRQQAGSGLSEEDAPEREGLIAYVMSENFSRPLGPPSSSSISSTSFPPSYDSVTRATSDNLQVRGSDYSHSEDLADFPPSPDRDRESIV

hNav1.3 = hNav1.3 (Homo sapiens, UniProt Q9NY46); conditions: IonWorks Quattro, use-dependent block, hNav1.3; read-out: IWQ Use Nav1.3

Chain of hNav1.7 (Q15858 whole entry, looked up): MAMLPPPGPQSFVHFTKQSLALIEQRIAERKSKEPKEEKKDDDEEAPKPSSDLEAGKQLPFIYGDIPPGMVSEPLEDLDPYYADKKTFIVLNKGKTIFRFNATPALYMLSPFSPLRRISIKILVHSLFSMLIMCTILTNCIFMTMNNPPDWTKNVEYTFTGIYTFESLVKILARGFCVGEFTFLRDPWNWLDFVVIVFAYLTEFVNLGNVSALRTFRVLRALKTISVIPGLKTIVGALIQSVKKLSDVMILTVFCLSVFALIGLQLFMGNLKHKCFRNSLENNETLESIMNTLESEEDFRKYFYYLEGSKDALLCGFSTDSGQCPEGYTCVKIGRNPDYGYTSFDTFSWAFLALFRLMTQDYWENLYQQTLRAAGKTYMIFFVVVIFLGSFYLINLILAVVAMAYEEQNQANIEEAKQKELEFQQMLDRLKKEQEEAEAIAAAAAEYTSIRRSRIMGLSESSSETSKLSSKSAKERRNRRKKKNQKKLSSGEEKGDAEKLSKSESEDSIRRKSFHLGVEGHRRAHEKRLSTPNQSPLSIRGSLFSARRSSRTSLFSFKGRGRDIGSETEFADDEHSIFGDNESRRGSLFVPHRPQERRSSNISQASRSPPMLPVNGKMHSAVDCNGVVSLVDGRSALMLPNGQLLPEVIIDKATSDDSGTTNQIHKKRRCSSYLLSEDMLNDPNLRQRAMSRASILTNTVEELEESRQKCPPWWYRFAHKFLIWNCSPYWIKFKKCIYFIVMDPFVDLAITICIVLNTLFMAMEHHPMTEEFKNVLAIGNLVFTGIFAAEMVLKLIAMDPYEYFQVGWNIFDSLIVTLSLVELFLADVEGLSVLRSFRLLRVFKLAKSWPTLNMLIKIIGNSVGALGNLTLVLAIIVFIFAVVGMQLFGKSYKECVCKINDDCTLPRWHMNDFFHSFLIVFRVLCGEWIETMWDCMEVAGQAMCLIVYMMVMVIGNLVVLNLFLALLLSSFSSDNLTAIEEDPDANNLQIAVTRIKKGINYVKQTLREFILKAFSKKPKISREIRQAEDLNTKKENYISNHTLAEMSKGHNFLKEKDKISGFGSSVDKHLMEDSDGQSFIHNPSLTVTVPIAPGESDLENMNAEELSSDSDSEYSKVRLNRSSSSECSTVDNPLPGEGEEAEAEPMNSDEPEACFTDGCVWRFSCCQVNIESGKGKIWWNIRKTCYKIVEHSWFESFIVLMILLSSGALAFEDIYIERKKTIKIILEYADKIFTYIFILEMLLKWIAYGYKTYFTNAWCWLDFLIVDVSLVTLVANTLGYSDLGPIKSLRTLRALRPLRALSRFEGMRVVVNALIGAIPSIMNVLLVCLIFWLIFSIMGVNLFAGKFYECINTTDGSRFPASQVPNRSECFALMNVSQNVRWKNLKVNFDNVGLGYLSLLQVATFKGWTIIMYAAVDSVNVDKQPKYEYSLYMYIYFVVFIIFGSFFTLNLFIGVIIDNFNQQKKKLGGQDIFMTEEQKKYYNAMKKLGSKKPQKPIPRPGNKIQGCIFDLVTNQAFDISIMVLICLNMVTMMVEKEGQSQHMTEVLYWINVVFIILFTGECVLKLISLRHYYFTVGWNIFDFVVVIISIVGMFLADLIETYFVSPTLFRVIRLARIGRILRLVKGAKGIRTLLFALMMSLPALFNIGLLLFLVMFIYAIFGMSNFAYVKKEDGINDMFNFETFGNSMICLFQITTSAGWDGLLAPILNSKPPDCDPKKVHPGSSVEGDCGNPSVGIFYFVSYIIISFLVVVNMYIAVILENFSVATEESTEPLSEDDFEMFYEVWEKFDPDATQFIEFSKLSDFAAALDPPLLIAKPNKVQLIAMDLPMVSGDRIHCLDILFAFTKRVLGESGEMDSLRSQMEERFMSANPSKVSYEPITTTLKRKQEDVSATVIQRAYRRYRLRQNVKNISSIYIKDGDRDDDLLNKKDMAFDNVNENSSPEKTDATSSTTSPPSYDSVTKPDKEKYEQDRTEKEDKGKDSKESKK

SMILES	IC50 (hNav1.7) [nM]	IC50 (hNav1.5) [nM]	IC50 (hNav1.3) [nM]
CC[C@H](C)[C@@H]1NC(=O)[C@@H]2CSSC[C@@H]3NC(=O)[C@H](C(C)C)NC(=O)[C@H](CC(C)C)NC(=O)[C@H](CC(N)=O)NC(=O)[C@@H]4CCCN4C(=O)[C@H](CCCNC(=N)N)NC(=O)[C@H](CSSC[C@H](NC(=O)[C@@H](N)CC(=O)O)C(=O)N[C@@H](CC(C)C)C(=O)NCC(=O)N[C@@H](C)C(=O)N[C@@H](CC(C)C)C(=O)N[C@@H](CCCNC(=N)N)C(=O)N[C@@H](CCCCN)C(=O)N2)NC(=O)[C@H](CSSC[C@@H](C(=O)N[C@@H](CCCCN)C(=O)N[C@@H](Cc2ccc(O)cc2)C(=O)N[C@H](C(=O)N[C@@H](Cc2ccccc2)C(N)=O)C(C)C)NC(=O)[C@H](Cc2c[nH]c4ccccc24)NC(=O)[C@H](CCCCN)NC(=O)[C@H](Cc2c[nH]cn2)NC(=O)[C@H]([C@@H](C)O)NC(=O)[C@H](C)NC(=O)[C@H](CO)NC3=O)NC(=O)[C@H](CCCCN)NC(=O)[C@H](CC(=O)O)NC(=O)[C@H](CC(N)=O)NC(=O)[C@H](CC(=O)O)NC(=O)[C@@H]2CCCN2C1=O [compound 731]	600	38000	2800
CC[C@H](C)[C@@H]1NC(=O)[C@@H]2CSSC[C@@H]3NC(=O)[C@H](C(C)C)NC(=O)[C@H](CC(C)C)NC(=O)[C@H](CC(N)=O)NC(=O)[C@@H]4CCCN4C(=O)[C@H](CCCNC(=N)N)NC(=O)[C@H](CSSC[C@H](NC(=O)[C@@H](N)CC(=O)O)C(=O)N[C@@H](CC(C)C)C(=O)NCC(=O)N[C@@H](C)C(=O)N[C@@H](Cc4ccccc4)C(=O)N[C@@H](CCCNC(=N)N)C(=O)N[C@@H](CCCCN)C(=O)N2)NC(=O)[C@H](CSSC[C@@H](C(=O)N[C@@H](CCCCN)C(=O)N[C@@H](Cc2ccc(O)cc2)C(=O)N[C@H](C(=O)N[C@@H](Cc2ccccc2)C(N)=O)C(C)C)NC(=O)[C@H](Cc2c[nH]c4ccccc24)NC(=O)[C@H](CCCCN)NC(=O)[C@H](Cc2c[nH]cn2)NC(=O)[C@H]([C@@H](C)O)NC(=O)[C@H](C)NC(=O)[C@H](CO)NC3=O)NC(=O)[C@H](CCCCN)NC(=O)[C@H](CC(=O)O)NC(=O)[C@H](CC(N)=O)NC(=O)[C@H](CC(=O)O)NC(=O)[C@@H]2CCCN2C1=O [compound 732] (H-DCLGAFRKCIPDNDKCCRPNLVCSATHKWCKYVF-NH2; disulfide 2-17, 9-23, 16-30)	290	> 50000	600
CC[C@H](C)[C@@H]1NC(=O)[C@@H]2CSSC[C@@H]3NC(=O)[C@H](C(C)C)NC(=O)[C@H](CC(C)C)NC(=O)[C@H](CC(N)=O)NC(=O)[C@@H]4CCCN4C(=O)[C@H](CCCNC(=N)N)NC(=O)[C@H](CSSC[C@H](NC(=O)[C@@H](N)CC(=O)O)C(=O)N[C@@H](CC(C)C)C(=O)NCC(=O)N[C@@H](C)C(=O)N[C@@H](CC(C)C)C(=O)N[C@@H](CCCNC(=N)N)C(=O)N[C@@H](CCCCN)C(=O)N2)NC(=O)[C@H](CSSC[C@@H](C(=O)N[C@@H](CCCCN)C(=O)N[C@@H](Cc2ccc(O)cc2)C(=O)N[C@H](C(=O)N[C@@H](Cc2ccccc2)C(N)=O)C(C)C)NC(=O)[C@H](Cc2c[nH]c4ccccc24)NC(=O)[C@H](CCCCN)NC(=O)[C@H](Cc2c[nH]cn2)NC(=O)[C@H]([C@@H](C)O)NC(=O)[C@H](CCC(=O)O)NC(=O)[C@H](CO)NC3=O)NC(=O)[C@H](CCCCN)NC(=O)[C@H](CC(=O)O)NC(=O)[C@H](CC(N)=O)NC(=O)[C@H](CC(=O)O)NC(=O)[C@@H]2CCCN2C1=O [compound 734]	1800	41000	9300
CC[C@H](C)[C@@H]1NC(=O)[C@@H]2CSSC[C@@H]3NC(=O)[C@H](C(C)C)NC(=O)[C@H](CC(C)C)NC(=O)[C@H](CC(N)=O)NC(=O)[C@@H]4CCCN4C(=O)[C@H](CCCNC(=N)N)NC(=O)[C@H](CSSC[C@H](NC(=O)[C@@H](N)CC(=O)O)C(=O)N[C@@H](CC(C)C)C(=O)NCC(=O)N[C@@H](C)C(=O)N[C@@H](Cc4ccccc4)C(=O)N[C@@H](CCCNC(=N)N)C(=O)N[C@@H](CCCCN)C(=O)N2)NC(=O)[C@H](CSSC[C@@H](C(=O)N[C@@H](CCCCN)C(=O)N[C@@H](Cc2ccc(O)cc2)C(=O)N[C@H](C(=O)N[C@@H](Cc2ccccc2)C(N)=O)C(C)C)NC(=O)[C@H](Cc2c[nH]c4ccccc24)NC(=O)[C@H](CCCCN)NC(=O)[C@H](Cc2c[nH]cn2)NC(=O)[C@H]([C@@H](C)O)NC(=O)[C@H](CCC(=O)O)NC(=O)[C@H](CO)NC3=O)NC(=O)[C@H](CCCCN)NC(=O)[C@H](CC(=O)O)NC(=O)[C@H](CC(N)=O)NC(=O)[C@H](CC(=O)O)NC(=O)[C@@H]2CCCN2C1=O [compound 735] (H-DCLGAFRKCIPDNDKCCRPNLVCSETHKWCKYVF-NH2; disulfide 2-17, 9-23, 16-30)	1500	41000	3600
C#CC[C@@H]1NC(=O)[C@H](CC(=O)O)NC(=O)[C@H](CC(N)=O)NC(=O)[C@H](CC(=O)O)NC(=O)[C@@H]2CCCN2C(=O)[C@H]([C@@H](C)CC)NC(=O)[C@@H]2CSSC[C@@H]3NC(=O)[C@H](C(C)C)NC(=O)[C@H](CC(C)C)NC(=O)[C@H](CC(N)=O)NC(=O)[C@@H]4CCCN4C(=O)[C@H](CCCNC(=N)N)NC(=O)[C@H](CSSC[C@H](NC(=O)[C@@H](N)CC(=O)O)C(=O)N[C@@H](CC(C)C)C(=O)NCC(=O)N[C@@H](Cc4ccccc4)C(=O)N[C@@H](Cc4ccccc4)C(=O)N[C@@H](CCCNC(=N)N)C(=O)N[C@@H](CCCCN)C(=O)N2)NC(=O)[C@H](CSSC[C@@H](C(=O)N[C@@H](CCCCN)C(=O)N[C@@H](Cc2ccc(O)cc2)C(=O)N[C@H](C(=O)N[C@@H](Cc2ccccc2)C(N)=O)C(C)C)NC(=O)[C@H](Cc2c[nH]c4ccccc24)NC(=O)[C@H](CCCCN)NC(=O)[C@H](Cc2c[nH]cn2)NC(=O)[C@H]([C@@H](C)O)NC(=O)[C@H](CCCNC(=N)N)NC(=O)[C@H](CO)NC3=O)NC1=O [compound 736] (H-DCLGFFRKCIPDND[Pra]CCRPNLVCSRTHKWCKYVF-NH2; disulfide 2-17, 9-23, 16-30)	> 5000	32600	> 5000
CC[C@H](C)[C@@H]1NC(=O)[C@@H]2CSSC[C@@H]3NC(=O)[C@H](C(C)C)NC(=O)[C@H](CC(C)C)NC(=O)[C@H](CC(N)=O)NC(=O)[C@@H]4CCCN4C(=O)[C@H](CCCNC(=N)N)NC(=O)[C@H](CSSC[C@H](NC(=O)[C@@H](N)CC(=O)O)C(=O)N[C@@H](CC(C)C)C(=O)NCC(=O)N[C@@H](C)C(=O)N[C@@H](CCSC)C(=O)N[C@@H](CCCNC(=N)N)C(=O)N[C@@H](CCCCN)C(=O)N2)NC(=O)[C@H](CSSC[C@@H](C(=O)N[C@@H](CCCCN)C(=O)N[C@@H](Cc2ccc(O)cc2)C(=O)N[C@H](C(=O)N[C@@H](Cc2ccccc2)C(N)=O)C(C)C)NC(=O)[C@H](Cc2c[nH]c4ccccc24)NC(=O)[C@H](Cc2c[nH]cn2)NC(=O)[C@H](Cc2c[nH]cn2)NC(=O)[C@H]([C@@H](C)O)NC(=O)[C@H](CCCNC(=N)N)NC(=O)[C@H](CO)NC3=O)NC(=O)[C@H](CCCCN)NC(=O)[C@H](CC(=O)O)NC(=O)[C@H](CC(N)=O)NC(=O)[C@H](CC(=O)O)NC(=O)[C@@H]2CCCN2C1=O [compound 737] (H-DCLGAMRKCIPDNDKCCRPNLVCSRTHHWCKYVF-NH2; disulfide 2-17, 9-23, 16-30)	400	19200	1600
CC[C@H](C)[C@@H]1NC(=O)[C@@H]2CSSC[C@@H]3NC(=O)[C@H](C(C)C)NC(=O)[C@H](CC(C)C)NC(=O)[C@H](CC(N)=O)NC(=O)[C@@H]4CCCN4C(=O)[C@H](CCCNC(=N)N)NC(=O)[C@H](CSSC[C@H](NC(=O)[C@@H](N)CC(=O)O)C(=O)N[C@@H](CC(C)C)C(=O)NCC(=O)N[C@@H](C)C(=O)N[C@@H](CCSC)C(=O)N[C@@H](CCCNC(=N)N)C(=O)N[C@@H](CCCCN)C(=O)N2)NC(=O)[C@H](CSSC[C@@H](C(=O)N[C@@H](CCCCN)C(=O)N[C@@H](Cc2ccc(O)cc2)C(=O)N[C@H](C(=O)N[C@@H](Cc2ccccc2)C(N)=O)C(C)C)NC(=O)[C@H](Cc2c[nH]c4ccccc24)NC(=O)[C@H](CO)NC(=O)[C@H](Cc2c[nH]cn2)NC(=O)[C@H]([C@@H](C)O)NC(=O)[C@H](CCCNC(=N)N)NC(=O)[C@H](CO)NC3=O)NC(=O)[C@H](CCCCN)NC(=O)[C@H](CC(=O)O)NC(=O)[C@H](CC(N)=O)NC(=O)[C@H](CC(=O)O)NC(=O)[C@@H]2CCCN2C1=O [compound 738] (H-DCLGAMRKCIPDNDKCCRPNLVCSRTHSWCKYVF-NH2; disulfide 2-17, 9-23, 16-30)	650	21900	1800
CC[C@H](C)[C@@H]1NC(=O)[C@@H]2CSSC[C@@H]3NC(=O)[C@H](C(C)C)NC(=O)[C@H](CC(C)C)NC(=O)[C@H](CC(N)=O)NC(=O)[C@@H]4CCCN4C(=O)[C@H](CCCNC(=N)N)NC(=O)[C@H](CSSC[C@H](NC(=O)[C@@H](N)CC(=O)O)C(=O)N[C@@H](CC(C)C)C(=O)NCC(=O)N[C@@H](C)C(=O)N[C@@H](CCSC)C(=O)N[C@@H](CCCNC(=N)N)C(=O)N[C@@H](CCCCN)C(=O)N2)NC(=O)[C@H](CSSC[C@@H](C(=O)N[C@@H](CCCCN)C(=O)N[C@@H](Cc2ccc(O)cc2)C(=O)N[C@H](C(=O)N[C@@H](Cc2ccccc2)C(N)=O)C(C)C)NC(=O)[C@H](Cc2c[nH]c4ccccc24)NC(=O)[C@H](CCC(N)=O)NC(=O)[C@H](Cc2c[nH]cn2)NC(=O)[C@H]([C@@H](C)O)NC(=O)[C@H](CCCNC(=N)N)NC(=O)[C@H](CO)NC3=O)NC(=O)[C@H](CCCCN)NC(=O)[C@H](CC(=O)O)NC(=O)[C@H](CC(N)=O)NC(=O)[C@H](CC(=O)O)NC(=O)[C@@H]2CCCN2C1=O [compound 739] (H-DCLGAMRKCIPDNDKCCRPNLVCSRTHQWCKYVF-NH2; disulfide 2-17, 9-23, 16-30)	630	20500	2200

— patent publication US9340590B2 (priority 2011, dated 2016)
